# Source: patent publication US20120264902A1 (The Regents of the University of Colorado, a body corporate, priority 2011, published 2012)
# Read-outs that look alike come from different tables or passages of the source.
# Tests used:
# [1] = system: Yeast strains, S288 C background; experiment: Yeast anaerobic MIC evaluation (Tables 14 and 16); type: cell-based, Saccharomyces cerevisiae; details: for MIC: Saccharomyces cerevisiae, read-out: Average MIC Assay Result (g/L 3-HP)
# Experimental: The minimum inhibitory concentration (MIC) was determined anaerobically in a 96 well-plate format. […] A 1% (v/v) inoculum was introduced into a 5 ml culture of SD minimal media without vitamins. After the cells reached mid-exponential phase, the culture was diluted to an OD600 of 0.200. The cells were further diluted 1:5 and a 10 μL aliquot was used to inoculate each well of a 96 well plate (˜10^4 cells per well) to total volume of 100 uL. […] Plates were incubated for 72 hours at 30 C. […] Plates were sealed in biobag anaerobic chambers that contained gas generators for anaerobic conditions and incubated for 72 hours at 30 C.
# [2] = system: E. Coli BW25113; experiment: MIC evaluation general protocol, E. Coli anaerobic (Tables 7 and 9); type: cell-based; details: for MIC: Escherichia coli, read-out: MIC Assay Result (g/L 3-HP); for % Increase Over Control: MIC vs BW25113 in M9 without supplement
# Experimental: The minimum inhibitory concentration (MIC) was determined anerobically in a 96 well-plate format. […] Overnight cultures of strains were grown in triplicate in 5 mL LB (with antibiotic where appropriate). A 1% (v/v) inoculum was introduced into a 5 ml culture of M9 minimal media.
# (§1) For the above MIC evaluations, the final results are expressed in chemical agent concentrations determined by analysis of the stock solution by HPLC (i.e., see Subsection Mb).
# [3] = system: E. Coli BW25113; experiment: MIC evaluation general protocol, E. Coli aerobic (Tables 6 and 8); type: cell-based; details: for average MIC Assay Result (g/L 3-HP): MIC of 3-HP for strain BW25113 in M9 media with the named supplement(s); for % Increase Over Control: increase of 3-HP MIC vs BW25113 in M9 without supplement
# Experimental: The minimum inhibitory concentration (MIC) was determined aerobically in a 96 well-plate format. […] Overnight cultures of strains were grown in triplicate in 5 mL LB (with antibiotic where appropriate). A 1% (v/v) inoculum was introduced into a 5 ml culture of M9 minimal media.
# as §1
# [4] = system: E. Coli Mach1-T1®; experiment: MIC of 3-HP, microaerobic, 96-well, MOPS minimal media (Examples 2 and 4); type: cell-based, Escherichia coli; details: supplement added to MOPS minimal media, 24 hours
# [5] = system: MACH1™-T1® E. Coli; experiment: IroK expression study, microaerobic MIC, MOPS minimal media, 1 mM IPTG; type: cell-based; details: IroK expressed from pKK223-3; data not shown
# Experimental: The two oligonucleotides were added in a 1:1 ratio and annealed according to standard methodology in a thermal cycler. Ligation of the annealed primer product with the pKK223-3 expression vector (SEQ ID NO:008, Pharmacia, Piscataway, N.J.) was performed with T4 Ligase (Invitrogen, Carlsbad, Calif.) and incubated at 25° C. overnight. The ligation product was then electroporated into competent MACH1™-T1®, plated on LB+ampicillan, and incubated at 37° C. for 24 hours. Plasmids were isolated and confirmed by purification and subsequent restriction digest and sequencing (Macrogen, Rockville, Md.). MICs were then determined corresponding to 1 mM IPTG induction.
# The minimum inhibitory concentration (MIC) was determined microaerobically in a 96 well-plate format. Overnight cultures of strains were grown in 5 mL LB (with antibiotic where appropriate). A 1% (v/v) inoculum was introduced into a 15 ml culture of MOPS minimal media. After the cells reached mid-exponential phase, the culture was diluted to an OD600 of 0.200. The cells were further diluted 1:20 and a 10 μL aliquot was used to inoculate each well of a 96 well plate (˜10^4 cells per well).
# [6] = system: E. Coli K12; type: cell-based, Escherichia coli; details: E. Coli K12, M9 minimal media, control or supplemented, aerobic, 24 hours
# Experimental: Overnight cultures of strains were grown in 5 ml LB (with antibiotic where appropriate) at 37° C. in a shaking incubator. A 1 v/v % was used to inoculate 10 mL of M9 minimal media. After the cells reached mid-exponential phase, the culture was diluted to an OD600 of 0.200. The cells were further diluted 1:20 and a 10 ul aliquot was used to inoculate each well (˜10^4 cells per well). […] The MIC endpoint is the lowest concentration of compound at which there was no visible growth.
# [7] = system: Yeast strains, S288 C background; experiment: Yeast aerobic MIC evaluation (Tables 13 and 15); type: cell-based; details: Saccharomyces cerevisiae, read-out: Average MIC Assay Result (g/L 3-HP), S288C, SD media, aerobic, MIC of 3-HP with the named supplement (label 3-HP = no supplement)
# Experimental: The minimum inhibitory concentration (MIC) was determined aerobically in a 96 well-plate format. […] A 1% (v/v) inoculum was introduced into a 5 ml culture of SD minimal media without vitamins. After the cells reached mid-exponential phase, the culture was diluted to an OD600 of 0.200. The cells were further diluted 1:5 and a 10 μL aliquot was used to inoculate each well of a 96 well plate (˜10^4 cells per well) to total volume of 100 uL. […] Plates were incubated for 72 hours at 30 C.
# [8] = system: B. subtilis; experiment: MIC evaluation general protocol, B. subtilis aerobic (Table 11); type: cell-based, Bacillus subtilis; details: B. subtilis 168, M9 + glu + trp, growth with 3-HP and the named supplement (label 3-HP = no supplement)
# Experimental: The minimum inhibitory concentration (MIC) was determined aerobically in a 96 well-plate format. […] Overnight cultures of strains were grown in triplicate in 5 mL LB (with antibiotic where appropriate). A 1% (v/v) inoculum was introduced into a 5 ml culture of M9 minimal media+glutamate.
# [9] = Preparation of neutralized 3-HP stock solution (observation at neutral pH); type: physicochemical; details: pH 7, aqueous buffer
# From the text: (§2) 3-HP was obtained from TCI America (Portland, Oreg.). Significant acrylic acid and 2-oxydipropionic contamination was observed via HPLC analysis. Samples were subsequently treated by diethyl ether extraction to remove acrylic acid and a portion of the 2-oxydipropionic contaminants. Samples were then neutralized with 10 M NaOH to a final pH of 7.0. […] The working stock solution was used for the selection and MIC evaluations in this example.
# as §2, with “selection, growth rates” for “selection”
# [10] = BW25113, M9 with supplements at Table 3 levels (or EZ Rich), anaerobic, 24 hours
molecule,measurement,setting,value
N[C@@H](CO)C(=O)O [Serine],MIC,[1],45 g/L
same,MIC,[2]; [10],32.1 g/L
N[C@@H](CCS)C(=O)O [Homocysteine],% Increase Over Control,"[1]; S288C, SD media, anaerobic, MIC with supplement vs no supplement",7%
same,MIC,[1],40 g/L
same,average MIC Assay Result (g/L 3-HP),[3],30 g/L 3-HP
same,% Increase Over Control,[3],9%
Nc1ccc(C(=O)O)cc1 [p-aminobenzoate],MIC increases (3-HP) with supplementation,[4],7%
CC(O)C(=O)O (stereo not drawn) [lactic],MICs of other organic acids with IroK expression,[5],unchanged
CC[C@H](C)[C@H](N)C(=O)O [Isoleucine (B)],MIC,[1],38 g/L
"C=CC(=O)O [acrylic, acrylic acid]",MICs of other organic acids with IroK expression,[5],unchanged
NCCCCNCCCN [Spermidine],MIC,[2]; [10],35 g/L
same,% Increase Over Control,[2]; anaerobic,17%
"O=C([O-])O.[Na+] [Bicarbonate, sodium bicarbonate]",Minimum inhibitory concentration (MIC) of 3-HP,[6],30 mg/mL
N[C@@H](Cc1ccc(O)cc1)C(=O)O [Tyrosine],MIC increases (3-HP) with supplementation,[4],40%
Tetrahydrofolate,MIC Assay Result (g/L 3-HP),[2]; [10],40.0 g/L
same,% Increase Over Control,[2]; anaerobic,33%
same,average MIC Assay Result (g/L 3-HP),[3],30 g/L 3-HP
same,% Increase Over Control,[3],9%
N[C@@H](Cc1c[nH]c2ccccc12)C(=O)O [Tryptophan],MIC increases (3-HP) with supplementation,[4],33%
NNC(=O)c1ccc(O)cc1 [p-hydroxybenzoic acid hydrazide],MIC increases (3-HP) with supplementation,[4],33%
N[C@@H](Cc1ccccc1)C(=O)O [Phenylalanine],MIC,[2]; [10],32.1 g/L
same,% Increase Over Control,[2]; anaerobic,7%
same,MIC increases (3-HP) with supplementation,[4],33%
Cc1ncc(CO)c(CO)c1O.Cl [pyridoxine hydrochloride],MIC increases (3-HP) with supplementation,[4],0%
O=C(O)C1=C[C@@H](O)[C@@H](O)[C@H](O)C1 [Shikimate (A)],MIC,[7],80 g/L
same,MIC,[1],60 g/L
NCCCC[C@H](N)C(=O)O [Lysine],MIC,[1],45 g/L
same,MIC,"[2]; BW25113, 24 h",41.7 g/L
N[C@@H](CCO)C(=O)O [Homoserine],MIC,[2]; [10],30 g/L
same,% Increase Over Control,[2]; anaerobic,0%
same,MIC increases (3-HP) with supplementation,[4],33%
NC(=O)NCCC[C@H](N)C(=O)O [Citrulline (C)],MIC,[7],58 g/L
same,MIC,[1],97 g/L
CC(=O)O [acetic],MICs of other organic acids with IroK expression,[5],unchanged
CCC(=O)C(=O)O [2-oxobutyrate],MIC increases (3-HP) with supplementation,[4],7%
Cl.NC1CCSC1=O (stereo not drawn) [homocysteine thiolactone hydrochloride],MIC increases (3-HP) with supplementation,[4],60%
C[C@@H](O)[C@H](N)C(=O)O [Threonine],MIC increases (3-HP) with supplementation,[4],3%
NCCCCN [Putrescine],MIC,[2]; [10],35 g/L
same,% Increase Over Control,[2]; anaerobic,17%
CSCC[C@H](N)C(=O)O [Methionine],MIC,[2]; [10],42.8 g/L
same,% Increase Over Control,[2]; anaerobic,43%
"O=C(O)c1cccc(O)c1O [Dihydroxybenzoate, 2,3-dihydroxybenzoic acid]",MIC,[2]; [10],40 g/L
same,% Increase Over Control,[2]; anaerobic,33%
same,average MIC Assay Result (g/L 3-HP),[3],35 g/L 3-HP
same,% Increase Over Control,[3],27%
same,MIC increases (3-HP) with supplementation,[4],33%
"O=C(O)CCO [Strain 3-HP, 3-hydroxypropionic acid]",Avg 24 hr ΔOD600,[8],0.04
same,solubility,[9],> 35 mg/mL
